Data reported in patent US10722520B2, “Heterocyclic compounds and their use in preventing or treating bacterial infections” (MUTABILIS, priority 2016, dated 2020).

Columns and labels:
TEM-1 = TEM-1 (Escherichia coli, UniProt P62593); conditions: read-out: IC50 β-lactamase TEM-1; class (A); nitrocefin 200 μM, 30-min pre-incubation, enzyme 0.1 nM
OXA-48 = OXA-48 (Klebsiella pneumoniae, UniProt Q6XEC0); conditions: read-out: IC50 β-lactamase OXA-48; class (D); nitrocefin 200 μM, 30-min pre-incubation, enzyme 0.3 nM
AmpC (PAE) = AmpC (PAE) (Pseudomonas aeruginosa, UniProt P24735); conditions: read-out: IC50 β-lactamase AmpC (PAE); class (C); nitrocefin 200 μM, 30-min pre-incubation, enzyme 0.4 nM
OXA-1 = OXA-1 (Escherichia coli, UniProt P13661); conditions: read-out: IC50 β-lactamase OXA-1; class (D); nitrocefin 200 μM, 30-min pre-incubation, enzyme 0.2 nM
AmpC (P99) = AmpC (P99) (Enterobacter cloacae, UniProt P05364); conditions: read-out: IC50 β-lactamase AmpC (P99); class (C); nitrocefin 200 μM, 30-min pre-incubation, enzyme 0.2 nM
KPC-2 = KPC-2 (Klebsiella pneumoniae, UniProt Q9F663); conditions: read-out: IC50 β-lactamase KPC-2; class (A); nitrocefin 200 μM, 30-min pre-incubation, enzyme 1 nM
CMY-37 = CMY-37 (Citrobacter freundii, UniProt P05193); conditions: read-out: IC50 β-lactamase CMY-37; class (C); nitrocefin 200 μM, 30-min pre-incubation, enzyme 0.2 nM
CTX-M-15 = CTX-M-15 (Escherichia coli, UniProt Q9EXV5); conditions: read-out: IC50 β-lactamase CTX-M-15; class (A); nitrocefin 200 μM, 30-min pre-incubation, enzyme 0.4 nM
E. cloacae P99 [1] = test: MIC of compound alone, broth microdilution; assay type: cell-based; conditions: strain P99; compound alone
Method in brief: (§1)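 Visual end point: lowest concentration that blocked growth. Conditions: cation-adjusted Mueller-Hinton broth, 5×10^5 cfu/mL final inoculum of log-phase bacteria, 16-20 h, 35° C, ambient atmosphere.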

K. pneumoniae 6299 [2] = test: MIC of compound alone, broth microdilution; assay type: cell-based; conditions: strain 6299; compound alone
Method in brief: as §1

K. pneumoniae BAA-1898 [3] = test: MIC of compound alone, broth microdilution; assay type: cell-based; conditions: strain BAA-1898; compound alone
Method in brief: as §1

E. coli 190317 [4] = test: MIC of compound alone, broth microdilution; assay type: cell-based; conditions: strain 190317; compound alone
Method in brief: as §1

P. aeruginosa CIP107051 [5] = test: MIC of compound alone, broth microdilution; assay type: cell-based; conditions: strain CIP107051; compound alone
Method in brief: as §1

OXA-11 = OXA-11 (Pseudomonas aeruginosa, UniProt Q06778); conditions: read-out: IC50 β-lactamase OXA-11; class (D); nitrocefin 200 μM, 30-min pre-incubation, enzyme 1.2 nM
OXA-15 = OXA-15 (Pseudomonas aeruginosa, UniProt Q51574); conditions: read-out: IC50 β-lactamase OXA-15; class (D); nitrocefin 200 μM, 30-min pre-incubation, enzyme 0.4 nM
E. cloacae P99 [6] = test: MIC of ceftazidime (CAZ) at fixed concentration of compound (synergy), broth microdilution; assay type: cell-based; conditions: strain P99; MIC of CAZ, compound fixed at 4 μg/mL
Method: (§2) Log phase bacterial suspensions were adjusted to a final density of 5×10^5 cfu/mL in cation-adjusted Mueller-Hinton broth (Becton-Dickinson) and added to each well (98 μL). Microplates were incubated for 16-20 h at 35° C. in ambient air. The MIC of the compounds was defined as the lowest concentration of said compounds that prevented bacterial growth as read by visual inspection.

K. pneumoniae 6299 [7] = test: as above; assay type: cell-based; conditions: strain 6299; MIC of CAZ, compound fixed at 4 μg/mL
Method: as §2

K. pneumoniae BAA-1898 [8] = test: as above; assay type: cell-based; conditions: strain BAA-1898; MIC of CAZ, compound fixed at 4 μg/mL
Method: as §2

E. coli 190317 [9] = test: as above; assay type: cell-based; conditions: strain 190317; MIC of CAZ, compound fixed at 4 μg/mL
Method: as §2

P. aeruginosa CIP107051 [10] = test: as above; assay type: cell-based; conditions: strain CIP107051; MIC of CAZ, compound fixed at 4 μg/mL
Method: as §2

SHV-1 = SHV-1 (Klebsiella pneumoniae, UniProt P0AD64); conditions: read-out: IC50 β-lactamase SHV-1; class (A); nitrocefin 200 μM, 30-min pre-incubation, enzyme 0.075 nM

Structure (SMILES) | IC50 (TEM-1) [nM] | IC50 (OXA-48) [nM] | IC50 (AmpC (PAE)) [nM] | IC50 (OXA-1) [nM] | IC50 (AmpC (P99)) [nM] | IC50 (KPC-2) [nM] | IC50 (CMY-37) [nM] | IC50 (CTX-M-15) [nM] | MIC compounds of the invention alone (E. cloacae P99 [1]) [µg/mL] | MIC compounds of the invention alone (K. pneumoniae 6299 [2]) [µg/mL] | MIC compounds of the invention alone (K. pneumoniae BAA-1898 [3]) [µg/mL] | MIC compounds of the invention alone (E. coli 190317 [4]) [µg/mL] | MIC compounds of the invention alone (P. aeruginosa CIP107051 [5]) [µg/mL] | IC50 (OXA-11) [nM] | IC50 (OXA-15) [nM] | MIC combination of CAZ and compounds of the invention at 4 μg/mL (E. cloacae P99 [6]) [µg/mL] | MIC combination of CAZ and compounds of the invention at 4 μg/mL (K. pneumoniae 6299 [7]) [µg/mL] | MIC combination of CAZ and compounds of the invention at 4 μg/mL (K. pneumoniae BAA-1898 [8]) [µg/mL] | MIC combination of CAZ and compounds of the invention at 4 μg/mL (E. coli 190317 [9]) [µg/mL] | MIC combination of CAZ and compounds of the invention at 4 μg/mL (P. aeruginosa CIP107051 [10]) [µg/mL] | further results
CN(C)C.NC(=O)CCc1nccn1C1=CC2CN(C1)C(=O)N2OS(=O)(=O)O (stereo not drawn) [Example 73, trimethylammonium [3-[2-(3-amino-3-oxo-propyl)imidazol-1-yl]-7-oxo-1,6-diazabicyclo[3.2.1]oct-3-en-6-yl]sulfate] | 1.9 | 3.7 | 250 | 44 | 92 | 78 | 86 | 4.4 | >32 | >32 | >32 | >32 | >32 | 87 | 270 | 4 | 4 | 1 | 0.5 | 8 | IC50 (SHV-1): 9.8 nM
CN(C)Cc1cn(C2=CC3CN(C2)C(=O)N3OS(=O)(=O)[O-])nn1.[Na+] (stereo not drawn) [Example 59, sodium [3-[4-(dimethylamino)methyltriazol-1-yl]-7-oxo-1,6-diazabicyclo[3.2.1]oct-3-en-6-yl]sulfate] | 0.69 | 1.2 | 590 | 210 | 34 | 12 | 72 | 0.55 | 2 | >32 | >32 | 1 | >32 | 170 | 6.6 | <0.25 | ≤0.25 | ≤0.25 | <0.25 | 8 | IC50 (SHV-1): 2.5 nM
O=C(O)C(F)(F)F.O=C1N2CC(n3ccc(CNc4nccs4)n3)=CC(C2)N1OS(=O)(=O)[O-].[Na+] (stereo not drawn) [Example 35, sodium and 2,2,2-trifluoroacetate [7-oxo-3-[3-(methylene-2-ammoniumthiazole)pyrazol-1-yl]-1,6-diazabicyclo[3.2.1]oct-3-en-6-yl]sulfate] | 0.73 | 6 | 52 | 130 | 12 | 13 | 8.1 | 0.5 | >32 | >32 | >32 | 16 | >32 | 54 | 79 | 32 | 32 | 32 | 0.5 | 16 | IC50 (SHV-1): 3.2 nM
NC(=O)c1nn(C2=CC3CN(C2)C(=O)N3OS(=O)(=O)[O-])cc1F.[Na+] (stereo not drawn) [Example 26, sodium (7-oxo-3-(3-carboxamide-4-fluoro-pyrazol-1-yl)-1,6-diazabicyclo[3.2.1]oct-3-en-6-yl) sulfate] | 0.23 | 7.8 | 130 | 33 | 14 | 3.2 | 36 | 0.72 | 16 | 16 | 16 | 4 | >32 | 9.8 | 13 | 1 | ≤0.25 | 0.5 | <0.25 | 4 | IC50 (SHV-1): 1.2 nM
O=C1N2CC(n3ccc(-c4ncco4)n3)=CC(C2)N1OS(=O)(=O)[O-].[Na+] (stereo not drawn) [Example 78] | 0.37 | 3 | 250 | 64 | 14 | 2.7 | 29 | 0.46 | >32 | >32 | >32 | >32 | >32 | 6.5 | 24 | 8 | 2 | 16 | 0.5 | 8 | IC50 (SHV-1): 1.5 nM
NCCNC(=O)Cc1ccn(C2=CC3CN(C2)C(=O)N3OS(=O)(=O)[O-])n1.O=C(O)C(F)(F)F.[Na+] (stereo not drawn) [Example 48, sodium and 2,2,2-trifluoroacetate [3-[3-[2-(2-ammoniumethylamino)-2-oxo-ethyl]pyrazol-1-yl]-7-oxo-1,6-diazabicyclo[3.2.1]oct-3-en-6-yl]sulfate] | 1.4 | 36 | 310 | 940 | 110 | 130 | 80 | 2.4 | 32 | >32 | >32 | 4 | >32 | 200 | 510 | 0.5 | 0.25 | 4 | <0.25 | 4 | IC50 (SHV-1): 5.3 nM
